Measurements: patent US20230265151A1, “GIP/GLP1 CO-AGONIST COMPOUNDS” (priority 2020, published 2023)
Where two headings read alike, the source gives them in different places. *1 amine or outer side, *2 acyl side, *3 side chain or, on linkers, in order; H or OH if unused. Where a SMILES comes first, the peptide text is derived from it. Side-chain parts run from the residue outwards. [ ]: non-standard residue; d: D form. The star is where a group is joined. Decanoyl(10-(4-HOOC-PhO)) = O=C(O)c1ccc(OCCCCCCCCCC(=O)*)cc1; αMePhe(2-F) = C[C@](N)(Cc1ccccc1F)C(=O)O; γGlu = O=C(O)[C@H](CCC(=O)[*:2])N[*:1]; C14 diacid = O=C(O)CCCCCCCCCCCCC(=O)*; αMeY = C[C@](N)(Cc1ccc(O)cc1)C(=O)O; 4Pal = N[C@@H](Cc1ccncc1)C(=O)O; αMeL = CC(C)C[C@](C)(N)C(=O)O; Orn = NCCC[C@H](N)C(=O)O; AEEA = NCCOCCOCC(=O)O; Aib = CC(C)(N)C(=O)O

Experiments:
Assay type in all cases: cell-based
hGCGR = target: T1, hGCGR (Homo sapiens, UniProt P47871); test: Functional cAMP formation (HTRF) in HEK-293 clonal cells expressing hGCGR, 0.1% bovine casein, without or with 1.0% human serum albumin
T1 construct: expressed in transfected cells
Outline: (§1)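 Cells were stimulated with peptide for 30 min at 37° C, then lysed in buffer carrying cAMP-d2 and anti-cAMP Eu3+-cryptate for a competitive HTRF read after at least 60 min at room temperature. The 665/620 nm ratio was converted to nM cAMP against a standard curve.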

hGIPR = target: T2, hGIPR (Homo sapiens, UniProt P48546); test: Functional cAMP formation (HTRF) in HEK-293 clonal cells expressing hGIPR, 0.1% bovine casein, without or with 1.0% human serum albumin
T2 construct: expressed in transfected cells
T2 sequence (P48546 22-466): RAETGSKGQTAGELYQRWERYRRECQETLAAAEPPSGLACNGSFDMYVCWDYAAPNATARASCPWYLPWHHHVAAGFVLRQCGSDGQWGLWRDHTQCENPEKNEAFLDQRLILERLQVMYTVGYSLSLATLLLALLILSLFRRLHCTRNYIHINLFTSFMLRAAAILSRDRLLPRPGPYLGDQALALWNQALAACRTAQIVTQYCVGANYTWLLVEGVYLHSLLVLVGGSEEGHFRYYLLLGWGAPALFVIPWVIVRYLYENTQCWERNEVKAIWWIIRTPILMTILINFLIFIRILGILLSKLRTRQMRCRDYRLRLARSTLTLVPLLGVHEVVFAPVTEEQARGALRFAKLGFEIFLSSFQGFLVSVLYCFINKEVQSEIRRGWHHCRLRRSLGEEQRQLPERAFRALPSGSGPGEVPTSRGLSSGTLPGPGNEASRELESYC
Outline: as §1

hGLP-1R = hGLP-1R (Homo sapiens, UniProt P43220); test: Functional cAMP formation (HTRF) in HEK-293 clonal cells expressing hGLP-1R, 0.1% bovine casein, without or with 1.0% human serum albumin; set-up: expressed in transfected cells
Outline: as §1

[1] = 0.1% bovine casein and 1.0% human serum albumin, 37° C., geometric mean, read-out: hGCGR EC50, nM (SEM, n)
[2] = cAMP, incubated at 37° C., 0.1% bovine casein (no human serum albumin), geometric mean, read-out: hGCGR EC50, nM (SEM, n)
[3] = 0.1% bovine casein and 1.0% human serum albumin, 37° C., geometric mean, read-out: hGIPR EC50, nM (SEM, n)
[4] = HEK293, 0.1% bovine casein and 1.0% human serum albumin, 37° C., percent of maximal response to GIP(1-42)NH2, read-out: hGIPR Emax, % ± SEM
[5] = cAMP, incubated at 37° C., 0.1% bovine casein (no human serum albumin), geometric mean, read-out: hGIPR EC50, nM (SEM, n)
[6] = 0.1% bovine casein and 1.0% human serum albumin, 37° C., geometric mean, read-out: hGLP-1R EC50, nM (SEM, n)
[7] = HEK293, 0.1% bovine casein and 1.0% human serum albumin, 37° C., percent of maximal response to GLP-1(7-36)NH2, read-out: hGLP-1R Emax, % ± SEM
[8] = cAMP, incubated at 37° C., 0.1% bovine casein (no human serum albumin), geometric mean, read-out: hGLP-1R EC50, nM (SEM, n)
[9] = hGCGR EC50, nM (SEM, n), cAMP, 37° C., 0.1% bovine casein (no human serum albumin), geometric mean
[10] = hGCGR EC50, nM (SEM, n), cAMP, 37° C., 0.1% bovine casein and 1.0% human serum albumin, geometric mean (SEM, n)
[11] = HEK293, read-out: hGIPR Emax, % ± SEM, cAMP, 37° C., 0.1% bovine casein and 1.0% human serum albumin, percent of maximal response to GIP(1-42)NH2
[12] = hGIPR EC50, nM (SEM, n), cAMP, 37° C., 0.1% bovine casein (no human serum albumin), geometric mean
[13] = HEK293, read-out: hGLP-1R Emax, % ± SEM, cAMP, 37° C., 0.1% bovine casein and 1.0% human serum albumin, percent of maximal response to GLP-1(7-36)NH2
[14] = hGLP-1R EC50, nM (SEM, n), cAMP, 37° C., 0.1% bovine casein (no human serum albumin), geometric mean

T1 sequence (P47871 26-477): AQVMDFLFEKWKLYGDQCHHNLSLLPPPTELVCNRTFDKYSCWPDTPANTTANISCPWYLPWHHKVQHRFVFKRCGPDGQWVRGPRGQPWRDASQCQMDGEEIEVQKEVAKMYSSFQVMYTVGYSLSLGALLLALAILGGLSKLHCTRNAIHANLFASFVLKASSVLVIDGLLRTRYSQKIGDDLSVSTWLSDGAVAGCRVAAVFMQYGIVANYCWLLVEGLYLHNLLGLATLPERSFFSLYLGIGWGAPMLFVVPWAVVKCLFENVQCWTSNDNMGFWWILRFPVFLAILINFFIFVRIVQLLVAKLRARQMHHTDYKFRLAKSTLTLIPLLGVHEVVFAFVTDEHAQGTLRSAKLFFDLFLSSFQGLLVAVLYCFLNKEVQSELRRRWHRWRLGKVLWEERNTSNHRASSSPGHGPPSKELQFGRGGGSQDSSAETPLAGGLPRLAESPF
Chain of hGLP-1R (P43220 24-463): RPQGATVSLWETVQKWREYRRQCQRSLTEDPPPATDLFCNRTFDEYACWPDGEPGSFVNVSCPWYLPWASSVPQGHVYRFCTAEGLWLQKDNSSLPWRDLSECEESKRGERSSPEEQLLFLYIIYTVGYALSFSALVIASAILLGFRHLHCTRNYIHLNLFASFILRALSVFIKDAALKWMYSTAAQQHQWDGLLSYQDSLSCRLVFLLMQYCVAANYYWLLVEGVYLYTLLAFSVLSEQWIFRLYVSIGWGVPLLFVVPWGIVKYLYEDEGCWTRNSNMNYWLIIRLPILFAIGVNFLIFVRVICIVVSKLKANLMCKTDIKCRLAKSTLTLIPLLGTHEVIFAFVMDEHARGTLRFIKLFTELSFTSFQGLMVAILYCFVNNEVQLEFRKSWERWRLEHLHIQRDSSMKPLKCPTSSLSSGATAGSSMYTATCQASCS

CC[C@H](C)[C@H](NC(=O)[C@H](CC(C)C)NC(=O)[C@](C)(Cc1ccc(O)cc1)NC(=O)[C@@H](CCC(=O)O)NC(=O)[C@@H](NC(=O)[C@H](Cc1ccccc1)NC(=O)[C@H](CCC(=O)O)NC(=O)C(C)(C)NC(=O)[C@H](CCC(N)=O)NC(=O)[C@H](C)NC(=O)[C@H](CCCCNC(=O)[C@@H](N)CCCCNC(=O)CC[C@H](NC(=O)CCCCCCCCCCCCC(=O)O)C(=O)O)NC(=O)[C@H](CCCN)NC(=O)[C@H](CC(=O)O)NC(=O)[C@H](CC(C)C)NC(=O)[C@](C)(CC(C)C)NC(=O)[C@@H](NC(=O)[C@H](CO)NC(=O)[C@H](Cc1ccncc1)NC(=O)[C@H](CC(=O)O)NC(=O)[C@H](CO)NC(=O)[C@@H](NC(=O)[C@](C)(Cc1ccccc1F)NC(=O)[C@@H](NC(=O)CNC(=O)[C@H](CCC(=O)O)NC(=O)C(C)(C)NC(=O)[C@@H](N)Cc1ccc(O)cc1)[C@@H](C)O)[C@@H](C)O)[C@@H](C)CC)[C@@H](C)CC)C(=O)N[C@@H](CCC(=O)O)C(=O)NCC(=O)NCC(=O)N[C@@H](CCCCNC(=O)[C@@H](N)CCCCNC(=O)CC[C@H](NC(=O)CCCCCCCCCCCCC(=O)O)C(=O)O)C(=O)N[C@@H](CO)C(=O)N[C@@H](CO)C(=O)NCC(=O)N[C@@H](C)C(=O)N1CCC[C@H]1C(=O)N1CCC[C@H]1C(=O)N1CCC[C@H]1C(=O)N[C@@H](CO)C(N)=O [Example 38]
EC50 (hGCGR; [1]): > 9950 nM
EC50 (hGCGR; [2]): > 9950 nM
EC50 (hGIPR; [3]): 0.539 nM
Emax (hGIPR; [4]): 88.8 ± 0.59%
EC50 (hGIPR; [5]): 0.0155 nM
EC50 (hGLP-1R; [6]): 12.5 nM
Emax (hGLP-1R; [7]): 115 ± 2.53%
EC50 (hGLP-1R; [8]): 0.225 nM

CC[C@H](C)[C@H](NC(=O)[C@H](CCCN)NC(=O)[C@H](CC(=O)O)NC(=O)[C@H](CC(C)C)NC(=O)[C@](C)(CC(C)C)NC(=O)[C@@H](NC(=O)C(C)(C)NC(=O)[C@H](Cc1ccc(O)cc1)NC(=O)[C@H](CC(=O)O)NC(=O)[C@H](CO)NC(=O)[C@@H](NC(=O)[C@](C)(Cc1ccccc1F)NC(=O)[C@@H](NC(=O)CNC(=O)[C@H](CCC(=O)O)NC(=O)C(C)(C)NC(=O)[C@@H](N)Cc1ccc(O)cc1)[C@@H](C)O)[C@@H](C)O)[C@@H](C)CC)C(=O)N[C@@H](C)C(=O)N[C@@H](CCC(N)=O)C(=O)NC(C)(C)C(=O)N[C@@H](CCCN)C(=O)N[C@@H](Cc1ccccc1)C(=O)N[C@H](C(=O)N[C@@H](CCCCNC(=O)COCCOCCNC(=O)COCCOCCNC(=O)CC[C@H](NC(=O)CCCCCCCCCOc1ccc(C(=O)O)cc1)C(=O)O)C(=O)N[C@@](C)(Cc1ccc(O)cc1)C(=O)N[C@@H](CC(C)C)C(=O)N[C@H](C(=O)N[C@@H](CCCCNC(=O)COCCOCCNC(=O)COCCOCCNC(=O)CC[C@H](NC(=O)CCCCCCCCCOc1ccc(C(=O)O)cc1)C(=O)O)C(=O)NCC(=O)NCC(=O)N1CCC[C@H]1C(=O)N[C@@H](CO)C(=O)N[C@@H](CO)C(=O)NCC(=O)N[C@@H](C)C(=O)N1CCC[C@H]1C(=O)N1CCC[C@H]1C(=O)N1CCC[C@H]1C(=O)N[C@@H](CO)C(N)=O)[C@@H](C)CC)[C@@H](C)CC [Example 355]
EC50 (hGCGR; [9]): > 9950 nM
EC50 (hGCGR; [10]): > 9950 nM
Emax (hGIPR; [11]): 86%
EC50 (hGIPR; [12]): 0.0365 nM
EC50 (hGIPR; hGIPR EC50, nM (SEM, n), cAMP, 37° C., 0.1% bovine casein and 1.0% human serum albumin, geometric mean (SEM, n)): 1.81 nM
Emax (hGLP-1R; [13]): 109%
Emax (hGLP-1R; HEK293, read-out: hGLP-1R Emax, % ± SEM, cAMP, 37° C., 0.1% bovine casein, percent of maximal response to GLP-1(7-36)NH2, arithmetic mean): 105%
EC50 (hGLP-1R; [14]): 0.574 nM
EC50 (hGLP-1R; hGLP-1R EC50, nM (SEM, n), cAMP, 37° C., 0.1% bovine casein and 1.0% human serum albumin, geometric mean (SEM, n)): 11.3 nM

CC[C@H](C)[C@H](NC(=O)[C@H](CC(C)C)NC(=O)[C@](C)(Cc1ccc(O)cc1)NC(=O)[C@@H](CCC(=O)O)NC(=O)[C@@H](NC(=O)[C@H](Cc1ccccc1)NC(=O)[C@H](CCC(=O)O)NC(=O)C(C)(C)NC(=O)[C@H](CCC(N)=O)NC(=O)[C@H](C)NC(=O)[C@H](CCCCNC(=O)COCCOCCNC(=O)COCCOCCNC(=O)CC[C@H](NC(=O)CCCCCCCCCCCCC(=O)O)C(=O)O)NC(=O)[C@H](CCCN)NC(=O)[C@H](CC(=O)O)NC(=O)[C@H](CC(C)C)NC(=O)[C@](C)(CC(C)C)NC(=O)[C@@H](NC(=O)[C@H](CO)NC(=O)[C@H](Cc1ccncc1)NC(=O)[C@H](CC(=O)O)NC(=O)[C@H](CO)NC(=O)[C@@H](NC(=O)[C@](C)(Cc1ccccc1F)NC(=O)[C@@H](NC(=O)CNC(=O)[C@H](CCC(=O)O)NC(=O)C(C)(C)NC(=O)[C@@H](N)Cc1ccc(O)cc1)[C@@H](C)O)[C@@H](C)O)[C@@H](C)CC)[C@@H](C)CC)C(=O)N[C@@H](CCC(=O)O)C(=O)NCC(=O)NCC(=O)N[C@@H](CCCCNC(=O)COCCOCCNC(=O)COCCOCCNC(=O)CC[C@H](NC(=O)CCCCCCCCCCCCC(=O)O)C(=O)O)C(=O)N[C@@H](CO)C(=O)N[C@@H](CO)C(=O)NCC(N)=O [Example 183] (H-Y[Aib]EGT[αMePhe(2-F)]TSD[4Pal]SI[αMeL]LD[Orn]K([AEEA-AEEA-γGlu-C14 diacid])AQ[Aib]EFI[dE][αMeY]LIEGGK([AEEA-AEEA-γGlu-C14 diacid])SSG-NH2)
EC50 (hGCGR; [1]): > 9950 nM
EC50 (hGCGR; [2]): > 9950 nM
EC50 (hGIPR; [3]): 1.22 nM
Emax (hGIPR; [4]): 75.5%
Emax (hGIPR; HEK293, percent of maximal response to GIP(1-42)NH2, 37° C., 0.1% bovine casein, arithmetic mean, read-out: hGIPR Emax, % ± SEM): 93.5 ± 1.46%
EC50 (hGIPR; [5]): 0.0326 nM
EC50 (hGLP-1R; [6]): 66.6 nM
Emax (hGLP-1R; [7]): 97.3%
Emax (hGLP-1R; HEK293, percent of maximal response to GLP-1(7-36)NH2, 37° C., 0.1% bovine casein, arithmetic mean, read-out: hGLP-1R Emax, % ± SEM): 93.9 ± 4.99%
EC50 (hGLP-1R; [8]): 1.37 nM

CC[C@H](C)[C@H](NC(=O)[C@H](CCCN)NC(=O)[C@H](CC(=O)O)NC(=O)[C@H](CC(C)C)NC(=O)[C@](C)(CC(C)C)NC(=O)[C@@H](NC(=O)C(C)(C)NC(=O)[C@H](Cc1ccc(O)cc1)NC(=O)[C@H](CC(=O)O)NC(=O)[C@H](CO)NC(=O)[C@@H](NC(=O)[C@](C)(Cc1ccccc1F)NC(=O)[C@@H](NC(=O)CNC(=O)[C@H](CCC(=O)O)NC(=O)C(C)(C)NC(=O)[C@@H](N)Cc1ccc(O)cc1)[C@@H](C)O)[C@@H](C)O)[C@@H](C)CC)C(=O)N[C@@H](C)C(=O)N[C@@H](CCC(N)=O)C(=O)NC(C)(C)C(=O)N[C@@H](CCCCNC(=O)COCCOCCNC(=O)CC[C@H](NC(=O)CCCCCCCCCOc1ccc(C(=O)O)cc1)C(=O)O)C(=O)N[C@@H](Cc1ccccc1)C(=O)N[C@H](C(=O)N[C@H](CCC(=O)O)C(=O)N[C@@](C)(Cc1ccc(O)cc1)C(=O)N[C@@H](CC(C)C)C(=O)N[C@H](C(=O)N[C@@H](CCCCNC(=O)COCCOCCNC(=O)CC[C@H](NC(=O)CCCCCCCCCOc1ccc(C(=O)O)cc1)C(=O)O)C(=O)NCC(=O)NCC(=O)N1CCC[C@H]1C(=O)N[C@@H](CO)C(=O)N[C@@H](CO)C(=O)NCC(=O)N[C@@H](C)C(=O)N1CCC[C@H]1C(=O)N1CCC[C@H]1C(=O)N1CCC[C@H]1C(=O)N[C@@H](CO)C(N)=O)[C@@H](C)CC)[C@@H](C)CC [Example 376] (H-Y[Aib]EGT[αMePhe(2-F)]TSDY[Aib]I[αMeL]LD[Orn]IAQ[Aib]K([AEEA-γGlu-Decanoyl(10-(4-HOOC-PhO))])FI[dE][αMeY]LIK([AEEA-γGlu-Decanoyl(10-(4-HOOC-PhO))])GGPSSGAPPPS-NH2)
EC50 (hGCGR; [9]): > 9950 nM
EC50 (hGCGR; [10]): > 9950 nM
Emax (hGIPR; [11]): 88.3%
EC50 (hGIPR; [12]): 0.0281 nM
Emax (hGLP-1R; [13]): 121%
EC50 (hGLP-1R; [14]): 0.539 nM
